Columns and labels:
Experiment in all cases: relative viability (nuclei count vs DMSO), 5 days (fraction); higher = more cells survive
[1] = compound: NC1(c2ccc(-c3nc4ccn5c(=O)[nH]nc5c4cc3-c3ccccc3)cc2)CCC1 [MK-2206] + O=C(c1cc(Cc2n[nH]c(=O)c3ccccc23)ccc1F)N1CCN(C(=O)C2CC2)CC1 [Olaparib] (partner 8 µM)
Procedure, shortened: (§1)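 A single step with final 0.05% Triton X-100, 1% formaldehyde and 1 ug/ml Hoechst fixed the cells and stained nuclei 5 days after treatment. Lung cancer cell lines in 1536-well plates had been treated by pin tool the day after seeding with one drug alone or a fixed anchor-drug dose plus five library-drug doses (not always all listed) in √10 steps, and nuclei were counted on 4× images. Relative viability is the ratio of nuclei in treated wells to nuclei in vehicle wells, taken as the median of duplicate plates.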

[2] = compound: NC1(c2ccc(-c3nc4ccn5c(=O)[nH]nc5c4cc3-c3ccccc3)cc2)CCC1 [MK-2206] + Cc1nc(Nc2ncc(C(=O)Nc3c(C)cccc3Cl)s2)cc(N2CCN(CCO)CC2)n1 [Dasatinib] (partner 0.075 µM)
Procedure, shortened: as §1

[3] = compound: NC1(c2ccc(-c3nc4ccn5c(=O)[nH]nc5c4cc3-c3ccccc3)cc2)CCC1 [MK-2206] + CC(=O)c1c(C)c2cnc(Nc3ccc(N4CCNCC4)cn3)nc2n(C2CCCC2)c1=O [Palbociclib] (partner 0.5 µM)
Procedure, shortened: as §1

[4] = compound: NC1(c2ccc(-c3nc4ccn5c(=O)[nH]nc5c4cc3-c3ccccc3)cc2)CCC1 [MK-2206] + CS(=O)(=O)N1CCN(Cc2cc3nc(-c4cccc5[nH]ncc45)nc(N4CCOCC4)c3s2)CC1 [Pictilisib] (partner 1 µM)
Procedure, shortened: as §1

[5] = compound: CS(=O)(=O)N1CCN(Cc2cc3nc(-c4cccc5[nH]ncc45)nc(N4CCOCC4)c3s2)CC1 [Pictilisib] + C[C@@H](Oc1cc(-c2cnn(C3CCNCC3)c2)cnc1N)c1c(Cl)ccc(F)c1Cl [Crizotinib] (partner 1 µM)
Procedure, shortened: as §1

Cell Line	relative viability ([1]; first compound 0.01 µM)	relative viability ([1]; first compound 0.03162 µM)	relative viability ([1]; first compound 0.3162 µM)	relative viability ([1]; first compound 1 µM)	relative viability ([2]; first compound 0.01 µM)	relative viability ([2]; first compound 0.03162 µM)	relative viability ([2]; first compound 0.3162 µM)	relative viability ([2]; first compound 1 µM)	relative viability ([3]; first compound 0.01 µM)	relative viability ([3]; first compound 0.03162 µM)	relative viability ([3]; first compound 0.3162 µM)	relative viability ([3]; first compound 1 µM)	relative viability ([4]; first compound 0.01 µM)	relative viability ([4]; first compound 0.03162 µM)	relative viability ([4]; first compound 0.3162 µM)	relative viability ([4]; first compound 1 µM)	relative viability ([5]; first compound 0.02 µM)	relative viability ([5]; first compound 0.06325 µM)	relative viability ([5]; first compound 0.6325 µM)	relative viability ([5]; first compound 2 µM)
NCI-H1792	0.497	0.514	0.532	0.264	0.758	0.845	0.913	0.819	0.631	0.751	0.609	0.653	0.27	0.271	0.251	0.283	0.916	0.925	0.772	0.425
NCI-H1915	0.238	0.246	0.257	0.254	0.348	0.329	0.348	0.271	0.594	0.612	0.499	0.505	0.866	1.1	0.88	0.947	0.855	1	0.889	0.898
NCI-H1944	0.388	0.439	0.429	0.478	0.243	0.227	0.198	0.182	0.338	0.332	0.3	0.296	0.361	0.346	0.361	0.34	1.11	0.962	0.933	0.603
NCI-H1975	0.705	0.782	0.764	0.663	0.4	0.346	0.292	0.341	0.604	0.529	0.49	0.168	0.267	0.259	0.24	0.232	0.915	0.9	0.713	0.307
NCI-H1993	0.941	1.05	0.99	0.652	0.29	0.524	0.556	0.51	0.638	0.74	0.545	0.471	0.85	0.742	0.742	0.86	0.766	0.691	0.726	0.638
